Read-outs that look alike come from different tables or passages of the source.
What was measured:
E. coli ATCC 25922 [1] = assay type: cell-based, Escherichia coli
Description: (§1) In order to study the activity of MR-22 in high-salt concentration, mice serum, different temperatures or trypsin, MIC once again conducted tests as described above.
[…] The resulting solutions were subjected to MIC testing to evaluate any alterations in the antimicrobial activity of MR-22.
(§2) To assess the thermal stability of MR-22, it was subjected to various temperatures (40°C, 60°C, 80°C, and 100°C) for 30 min. Then, reducing to room temperature, and the MIC was subsequently determined.
(§3) MR-22 was mixed with a solution containing 1 μg/ml of trypsin and incubated at 37°C for 2 to 12h. Then, trypsin inactivation was carried out at 60°C for 30 min. The antimicrobial activity of the samples was tested to assess the activity of MR-22 and its analogs after the treatment by trypsin. The untreated MR-22 served as the control group for comparative analysis.

[2] = test system: E. coli clinical strain E09; experiment: microbe, parasite or virus in culture; conditions: clinical strain E09, 18 h
Description: The clinical strains used in this study were obtained from a tertiary healthcare facility located in Guiyang, a city situated within the Guizhou Province of China. The E. coli ATCC 25922 was obtained from the Key and Characteristic Laboratory of Modern Pathogen Biology at Guizhou Medical University in Guiyang, China. All strains were stored at –80°C in LB medium and routinely cultured at LB medium at 37°C.
(§4) The MIC were determined by a micro dilution method in Mueller-Hinton broth (MHB) ([Cuenca-Estrella et al., 2010]). The final concentration of bacterial suspension in MHB were 1.0×10^6 CFU/mL. The final concentration of MR-22 ranged 1 ~ 256 μg/mL in 96 wells plate broth at 37°C for 16~18 h. Imipenem was employed as positive control, bacterial grown without treatment as negative control and MHB as blank control. MIC determination was performed by reading the OD600 nm. Take 100 μL samples in holes that have never seen bacterial growth and place them on the LB agar board. The concentration of MR-22 with no bacterial growth was defined as the MBC.

E. coli ATCC 25922 [3] = experiment: Membrane permeability assay (PI, flow cytometry); assay type: cell-based, Escherichia coli; conditions: 1 h, untreated 0.79%
Description: (§5) According to the previously described method ([Fadhel Abbas Albaayit et al., 2022]), bacterial suspensions were diluted with PBS to concentration of 1.0×10^6 CFU/mL. […] 10 μM of propidium iodide (PI; Sigma, US) was added to each group and incubated at 37°C for 15 min in the dark. The samples were analyzed using a CytoFLEX flow cytometry (Beckman Coulter, USA), and the positive rate of PI was utilized as an indicator of bacterial membrane permeability.

E. coli E19 [4] = experiment: Membrane permeability assay (PI, flow cytometry); assay type: cell-based, Escherichia coli; conditions: 1 h, untreated 2.13%
Description: as §5

E. coli ATCC 25922 [5] = assay type: cell-based, Escherichia coli; conditions: 1 μg/ml trypsin, 37°C, mean ± SD
Description: as §3

E. coli E19 [6] = assay type: cell-based, Escherichia coli; conditions: 1 μg/ml trypsin, 37°C, mean ± SD
Description: as §3

[7] = test system: E. coli ATCC 25922 and clinically drug resistant isolated strains; experiment: microbe, parasite or virus in culture; assay type: cell-based, Escherichia coli; conditions: 18 h
Description: as §4

E. coli E19 [8] = assay type: cell-based, Escherichia coli
Description: as §1
E. coli ATCC 25922 and E19 were incubated in different concentrations MR-22 in MHB with 150 mM NaCl, 2 mM CaCl2, 10% mice serum and 10% FBS in 96-well plates and cultured at 37°C for 16 h. The resulting solutions were subjected to MIC testing to evaluate any alterations in the antimicrobial activity of MR-22.
as §2, §3

[9] = test system: E. coli ATCC 25922 and E19; experiment: Intracellular ATP determination; assay type: cell-based, Escherichia coli; conditions: MR-22 1, 2, 4 × MIC, 1 h, 37°C; compared to the control group; dose-dependent
Description: The MR-22 solution was added to bacterial suspensions (1.0 × 10^6 CFU/mL) at different final concentrations (1, 2, 4 × MIC) incubated at 37°C for 1 h. The mixture was subsequently centrifuged and the resulting supernatants were collected. Finally, the intracellular ATP concentration was determined using an ATP Assay Kit (Beyotime, China) according to the manufacturer’s instruction.

E. coli ATCC 25922 [10] = experiment: Time-kill assay; assay type: cell-based, Escherichia coli; conditions: 2 × MIC ('1 × MIC and 2 × MIC, respectively' for E19 and ATCC 25922), 1.0×10^6 CFU/mL, 37°C, colony counts
Description: (§6) The time-kill kinetics of MR-22 on E. coli were determined following the protocol described by ([Lu et al., 2022]). The bacterial suspensions (1.0×10^6 CFU/mL) were mixed with different concentrations of MR-22, then cultured at 37°C. The final concentrations of MR-22 ranged 1, 2, 4 ×MIC. At 0, 1, 2, 4, 6, 12, and 24 h, 10 μL aliquot samples were diluted in 90 μL PBS and 5 μL aliquot of the dilutions was spread onto LB agar plates. After incubation at 37°C for 24 h, the colony counts were determined and the time-killing curve was plotted.

E. coli E19 [11] = experiment: Time-kill assay; assay type: cell-based, Escherichia coli; conditions: 1 × MIC ('1 × MIC and 2 × MIC, respectively' for E19 and ATCC 25922), 1.0×10^6 CFU/mL, 37°C, colony counts
Description: as §6

E. coli ATCC 25922 [12] = experiment: microbe, parasite or virus in culture; conditions: ATCC 25922, 18 h
Description: as §4

In the case of H-MAKRRKKAKKKAKKAKKRRRRR-NH2 [MR-22], the “MIC, 150 μM Na^+” value (E. coli ATCC 25922 [1]; ATCC 25922, 16 h) is reported as 256 µg/mL, the “MIC, 10% FBS” value (E. coli ATCC 25922 [1]; ATCC 25922, 16 h) is reported as 16 µg/mL and the “MIC, 10% Serum” value (E. coli ATCC 25922 [1]; ATCC 25922, 16 h) is reported as 64 µg/mL. For the same substance, the “MIC, 40°C 30 min” value (E. coli ATCC 25922 [1]; ATCC 25922, 16 h) was 16 µg/mL, the “MIC, 60°C 30 min” value (E. coli ATCC 25922 [1]; ATCC 25922, 16 h) was 16 µg/mL and the “MIC, 80°C 30 min” value (E. coli ATCC 25922 [1]; ATCC 25922, 16 h) was 16 µg/mL. The “MIC, 100°C 30 min” value (E. coli ATCC 25922 [1]; ATCC 25922, 16 h) was 16 µg/mL, the “MIC, Control” value (E. coli ATCC 25922 [1]; ATCC 25922, 16 h) was 16 µg/mL and the “MIC, 1 μg/mL Trypsin” value (E. coli ATCC 25922 [1]; E. coli ATCC 25922, MR-22 incubated with 1 μg/ml trypsin at 37°C (2 to 12 h), trypsin inactivated 60°C 30 min) was greater than 256 µg/mL. For the same substance, the MBC [2] was 16 µg/mL, the MIC [2] was 16 µg/mL and the “PI fluorescence signals (PI-positive cells)” value (shortened to “PI fluorescence signals”) (E. coli ATCC 25922 [3]; 1 × MIC) was 9.19%. For the same substance, the “PI fluorescence signals” value (E. coli ATCC 25922 [3]; 2 × MIC) was 39.10%, the “PI fluorescence signals” value (E. coli ATCC 25922 [3]; 4 × MIC) was 53.20% and the “percentage of PI-positive cells” value (E. coli E19 [4]; 1 × MIC) was 7.83%. The “percentage of PI-positive cells” value (E. coli E19 [4]; 2 × MIC) was 14.35%, the “percentage of PI-positive cells” value (E. coli E19 [4]; 4 × MIC) was 25.14% and the “Rate of inhibition after incubation with trypsin” value (“Rate of inhibition” for short) (E. coli ATCC 25922 [5]; 4 h) was 22.32 ± 1.71%. For the same substance, the “Rate of inhibition” value (E. coli ATCC 25922 [5]; 8 h) was 3.40 ± 0.26%, the “Rate of inhibition” value (E. coli ATCC 25922 [5]; 10 h) was 1.85 ± 0.18% and the “Rate of inhibition” value (E. coli ATCC 25922 [5]; 12 h) was 1.33 ± 0.22%. The “Rate of inhibition” value (E. coli E19 [6]; 4 h) was 17.74 ± 2.88%, the “Rate of inhibition” value (E. coli E19 [6]; 8 h) was 5.41 ± 1.20% and the “Rate of inhibition” value (E. coli E19 [6]; 10 h) was 4.49 ± 1.54%. For the same substance, the “Rate of inhibition” value (E. coli E19 [6]; 12 h) was 0.64 ± 0.46%, the “MIC over all strains tested” value [7] was 4 ~ 32 μg/mL and the “MIC, 150 μM Na^+” value (E. coli E19 [8]; E19, 16 h) was 256 µg/mL. The “MIC, 10% FBS” value (E. coli E19 [8]; E19, 16 h) was 32 µg/mL, the “MIC, 10% Serum” value (E. coli E19 [8]; E19, 16 h) was 128 µg/mL and the “MIC, 40°C 30 min” value (E. coli E19 [8]; E19, 16 h) was 32 µg/mL. The “MIC, 60°C 30 min” value (E. coli E19 [8]; E19, 16 h) was 32 µg/mL, the “MIC, 80°C 30 min” value (E. coli E19 [8]; E19, 16 h) was 32 µg/mL and the “MIC, 100°C 30 min” value (E. coli E19 [8]; E19, 16 h) was 32 µg/mL. The “MIC, Control” value (E. coli E19 [8]; E19, 16 h) was 32 µg/mL, the “MIC, 1 μg/mL Trypsin” value (E. coli E19 [8]; E. coli E19, MR-22 incubated with 1 μg/ml trypsin at 37°C (2 to 12 h), trypsin inactivated 60°C 30 min) was greater than 256 µg/mL and the “intracellular ATP concentration” value [9] was “significantly reduced”. For the same substance, the “time to eliminate the bacteria (time-kill)” value (E. coli ATCC 25922 [10]) was no more than 2 h, the “time to eliminate the bacteria (time-kill)” value (E. coli E19 [11]) was no more than 2 h and the MBC (E. coli ATCC 25922 [12]) was 16 µg/mL. The MIC (E. coli ATCC 25922 [12]) was 16 µg/mL.

— article PMC10847306, “The antibacterial activity and mechanism of a novel peptide MR-22 against multidrug-resistant Escherichia coli” (Frontiers in Cellular and Infection Microbiology, 2024)
